Data as given in the kinase profiling compilation of Christmann-Franck et al. (2016).

How the values were obtained:
Assay in all cases: KINOMEscan competition binding
Conditions in all cases: compound 10.0 µM
ACVR1 (human) = ACVR1 (human) (UniProt Q04771)
CAMKK1 (human) = CAMKK1 (human) (UniProt Q8N5S9)
CLK2 (human) = CLK2 (human) (UniProt P49760)
FGFR3 (human) = FGFR3 (human) (UniProt P22607)
RPS6KA2 KD1 (human) = RPS6KA2 KD1 (human) (UniProt Q15349)
RPS6KA2 KD2 (human) = RPS6KA2 KD2 (human) (UniProt Q15349)
PDPK1 (human) = PDPK1 (human) (UniProt O15530)
TGFBR1 (human) = TGFBR1 (human) (UniProt P36897)
PKN1 (human) = PKN1 (human) (UniProt Q16512)
EPHA2 (human) = EPHA2 (human) (UniProt P29317)
CDC42BPB (human) = CDC42BPB (human) (UniProt Q9Y5S2)
RPS6KA4 KD1 (human) = RPS6KA4 KD1 (human) (UniProt O75676)
STK32B (human) = STK32B (human) (UniProt Q9NY57)
PRKG1 (human) = PRKG1 (human) (UniProt Q13976)
MAP4K2 (human) = MAP4K2 (human) (UniProt Q12851)
CSK (human) = CSK (human) (UniProt P41240)
PKN2 (human) = PKN2 (human) (UniProt Q16513)
FGFR1 (human) = FGFR1 (human) (UniProt P11362)
PAK4 (human) = PAK4 (human) (UniProt O96013)
PRKD2 (human) = PRKD2 (human) (UniProt Q9BZL6)
ACVR1B (human) = ACVR1B (human) (UniProt P36896)
ERBB2 (human) = ERBB2 (human) (UniProt P04626)
PLK3 (human) = PLK3 (human) (UniProt Q9H4B4)
ULK3 (human) = ULK3 (human) (UniProt Q6PHR2)
TLK2 (human) = TLK2 (human) (UniProt Q86UE8)
MAP3K4 (human) = MAP3K4 (human) (UniProt Q9Y6R4)
MAPK7 (human) = MAPK7 (human) (UniProt Q13164)
PLK4 (human) = PLK4 (human) (UniProt O00444)
CDC42BPG (human) = CDC42BPG (human) (UniProt Q6DT37)
PIM2 (human) = PIM2 (human) (UniProt Q9P1W9)
ERBB4 (human) = ERBB4 (human) (UniProt Q15303)
MAP4K5 (human) = MAP4K5 (human) (UniProt Q9Y4K4)
EPHA6 (human) = EPHA6 (human) (UniProt Q9UF33)
NLK (human) = NLK (human) (UniProt Q9UBE8)
MAPKAPK2 (human) = MAPKAPK2 (human) (UniProt P49137)
CSNK1D (human) = CSNK1D (human) (UniProt P48730)
AAK1 (human) = AAK1 (human) (UniProt Q2M2I8)
PTK2 (human) = PTK2 (human) (UniProt Q05397)
MAPK14 (human) = MAPK14 (human) (UniProt Q16539)
SRPK1 (human) = SRPK1 (human) (UniProt Q96SB4)

Chain of CAMKK1 (human) (Q8N5S9 whole entry, looked up): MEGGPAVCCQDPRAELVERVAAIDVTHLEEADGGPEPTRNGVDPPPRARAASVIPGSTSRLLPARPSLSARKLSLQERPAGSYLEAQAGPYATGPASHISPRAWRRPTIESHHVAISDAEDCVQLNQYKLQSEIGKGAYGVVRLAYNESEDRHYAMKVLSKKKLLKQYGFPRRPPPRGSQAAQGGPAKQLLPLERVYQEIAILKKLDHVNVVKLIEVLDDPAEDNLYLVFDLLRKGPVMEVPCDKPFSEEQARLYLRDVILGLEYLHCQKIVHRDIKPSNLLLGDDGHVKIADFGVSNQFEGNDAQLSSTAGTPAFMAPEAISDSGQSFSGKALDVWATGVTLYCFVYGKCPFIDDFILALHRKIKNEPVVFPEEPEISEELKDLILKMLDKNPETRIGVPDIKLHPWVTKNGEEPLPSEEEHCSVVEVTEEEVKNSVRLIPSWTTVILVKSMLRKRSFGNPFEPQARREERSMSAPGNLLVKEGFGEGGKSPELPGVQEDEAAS
Chain of PLK3 (human) (Q9H4B4 whole entry, looked up): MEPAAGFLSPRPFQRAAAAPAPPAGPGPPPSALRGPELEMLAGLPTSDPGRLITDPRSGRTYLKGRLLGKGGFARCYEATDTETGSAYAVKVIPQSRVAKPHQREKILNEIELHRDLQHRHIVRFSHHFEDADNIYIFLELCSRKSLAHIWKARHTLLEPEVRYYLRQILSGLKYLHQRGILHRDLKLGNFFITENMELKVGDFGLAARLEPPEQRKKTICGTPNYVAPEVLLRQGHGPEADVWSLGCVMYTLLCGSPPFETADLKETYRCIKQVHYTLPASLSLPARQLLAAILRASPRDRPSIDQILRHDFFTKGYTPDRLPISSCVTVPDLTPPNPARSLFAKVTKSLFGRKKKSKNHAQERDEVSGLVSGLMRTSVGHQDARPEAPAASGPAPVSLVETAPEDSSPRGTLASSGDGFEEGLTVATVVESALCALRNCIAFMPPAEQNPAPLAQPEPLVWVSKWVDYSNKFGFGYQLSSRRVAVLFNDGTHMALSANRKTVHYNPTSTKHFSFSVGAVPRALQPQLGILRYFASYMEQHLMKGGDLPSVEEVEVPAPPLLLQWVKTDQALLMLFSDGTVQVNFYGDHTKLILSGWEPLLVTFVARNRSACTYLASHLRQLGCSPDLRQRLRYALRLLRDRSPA
Chain of PKN2 (human) (Q16513 whole entry, looked up): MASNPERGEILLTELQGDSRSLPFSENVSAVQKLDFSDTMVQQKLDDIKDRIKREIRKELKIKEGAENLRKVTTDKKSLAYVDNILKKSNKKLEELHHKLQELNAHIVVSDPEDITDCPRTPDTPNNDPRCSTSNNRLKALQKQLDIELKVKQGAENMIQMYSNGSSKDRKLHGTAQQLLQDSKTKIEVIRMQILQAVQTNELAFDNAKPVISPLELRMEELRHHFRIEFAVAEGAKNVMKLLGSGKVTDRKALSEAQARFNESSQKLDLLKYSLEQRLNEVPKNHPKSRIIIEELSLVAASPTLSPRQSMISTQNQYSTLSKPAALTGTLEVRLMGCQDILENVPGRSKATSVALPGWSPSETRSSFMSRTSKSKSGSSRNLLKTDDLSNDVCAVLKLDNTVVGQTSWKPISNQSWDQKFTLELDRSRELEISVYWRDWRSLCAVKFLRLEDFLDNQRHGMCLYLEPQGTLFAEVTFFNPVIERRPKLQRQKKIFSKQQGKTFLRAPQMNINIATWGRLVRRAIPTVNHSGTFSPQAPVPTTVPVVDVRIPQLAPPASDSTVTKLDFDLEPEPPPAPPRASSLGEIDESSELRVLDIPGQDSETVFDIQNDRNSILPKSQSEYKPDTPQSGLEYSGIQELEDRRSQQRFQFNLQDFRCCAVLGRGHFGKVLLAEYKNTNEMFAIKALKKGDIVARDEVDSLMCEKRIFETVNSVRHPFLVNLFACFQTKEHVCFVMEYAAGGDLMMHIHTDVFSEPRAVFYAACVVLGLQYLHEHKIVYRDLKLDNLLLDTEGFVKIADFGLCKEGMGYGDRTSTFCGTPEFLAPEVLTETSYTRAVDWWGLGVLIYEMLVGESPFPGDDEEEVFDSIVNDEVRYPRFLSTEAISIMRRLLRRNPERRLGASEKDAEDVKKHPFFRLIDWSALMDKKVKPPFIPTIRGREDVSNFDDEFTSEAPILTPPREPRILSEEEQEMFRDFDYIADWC
Chain of MAP4K2 (human) (Q12851 whole entry, looked up): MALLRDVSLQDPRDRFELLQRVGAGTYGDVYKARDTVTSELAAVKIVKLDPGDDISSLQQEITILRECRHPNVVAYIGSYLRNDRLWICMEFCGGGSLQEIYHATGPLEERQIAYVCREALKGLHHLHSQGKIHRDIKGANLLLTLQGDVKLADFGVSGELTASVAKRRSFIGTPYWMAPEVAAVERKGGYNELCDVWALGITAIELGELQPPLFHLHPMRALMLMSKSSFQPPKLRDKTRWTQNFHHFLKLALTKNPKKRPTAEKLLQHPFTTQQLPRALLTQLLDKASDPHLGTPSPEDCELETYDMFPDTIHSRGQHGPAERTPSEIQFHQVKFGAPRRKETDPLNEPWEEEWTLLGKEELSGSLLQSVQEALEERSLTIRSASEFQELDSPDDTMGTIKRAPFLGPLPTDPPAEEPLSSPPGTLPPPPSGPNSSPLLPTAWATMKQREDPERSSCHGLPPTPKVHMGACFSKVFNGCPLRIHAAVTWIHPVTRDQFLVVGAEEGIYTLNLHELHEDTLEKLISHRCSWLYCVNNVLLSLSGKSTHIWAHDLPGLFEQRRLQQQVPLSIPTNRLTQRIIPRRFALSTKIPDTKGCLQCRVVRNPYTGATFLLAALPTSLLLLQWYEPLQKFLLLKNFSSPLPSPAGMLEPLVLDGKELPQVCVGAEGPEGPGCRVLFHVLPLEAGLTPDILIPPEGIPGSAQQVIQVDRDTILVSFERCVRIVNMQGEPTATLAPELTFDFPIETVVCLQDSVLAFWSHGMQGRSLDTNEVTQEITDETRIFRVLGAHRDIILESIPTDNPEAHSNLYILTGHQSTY
Chain of CSK (human) (P41240 whole entry, looked up): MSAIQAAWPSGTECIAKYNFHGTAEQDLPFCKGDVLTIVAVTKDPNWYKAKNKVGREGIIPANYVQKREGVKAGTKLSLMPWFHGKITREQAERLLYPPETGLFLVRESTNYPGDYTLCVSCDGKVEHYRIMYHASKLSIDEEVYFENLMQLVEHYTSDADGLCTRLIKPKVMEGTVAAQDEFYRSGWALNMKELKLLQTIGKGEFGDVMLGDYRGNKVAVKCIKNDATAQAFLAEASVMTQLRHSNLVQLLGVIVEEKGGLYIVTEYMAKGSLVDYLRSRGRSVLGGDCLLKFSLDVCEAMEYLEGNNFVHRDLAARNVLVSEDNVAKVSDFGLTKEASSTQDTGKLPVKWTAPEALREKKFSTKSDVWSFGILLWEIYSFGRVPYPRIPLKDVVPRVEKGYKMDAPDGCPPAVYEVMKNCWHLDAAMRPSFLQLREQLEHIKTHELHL
Chain of PDPK1 (human) (O15530 whole entry, looked up): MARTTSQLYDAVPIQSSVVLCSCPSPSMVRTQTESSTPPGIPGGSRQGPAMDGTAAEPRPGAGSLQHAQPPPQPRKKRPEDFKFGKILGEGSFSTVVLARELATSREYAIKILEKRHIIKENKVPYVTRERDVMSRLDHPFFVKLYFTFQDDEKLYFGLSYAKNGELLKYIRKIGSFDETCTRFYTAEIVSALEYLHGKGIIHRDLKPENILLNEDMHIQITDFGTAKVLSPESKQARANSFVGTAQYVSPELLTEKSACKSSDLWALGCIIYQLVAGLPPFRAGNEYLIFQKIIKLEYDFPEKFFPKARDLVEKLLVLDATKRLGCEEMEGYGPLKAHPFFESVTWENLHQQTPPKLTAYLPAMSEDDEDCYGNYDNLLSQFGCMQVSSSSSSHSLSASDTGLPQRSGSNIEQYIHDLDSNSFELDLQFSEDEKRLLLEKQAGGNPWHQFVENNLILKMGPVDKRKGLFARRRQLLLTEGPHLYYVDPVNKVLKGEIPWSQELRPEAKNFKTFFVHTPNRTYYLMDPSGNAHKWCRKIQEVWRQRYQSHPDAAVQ
Chain of CSNK1D (human) (P48730 whole entry, looked up): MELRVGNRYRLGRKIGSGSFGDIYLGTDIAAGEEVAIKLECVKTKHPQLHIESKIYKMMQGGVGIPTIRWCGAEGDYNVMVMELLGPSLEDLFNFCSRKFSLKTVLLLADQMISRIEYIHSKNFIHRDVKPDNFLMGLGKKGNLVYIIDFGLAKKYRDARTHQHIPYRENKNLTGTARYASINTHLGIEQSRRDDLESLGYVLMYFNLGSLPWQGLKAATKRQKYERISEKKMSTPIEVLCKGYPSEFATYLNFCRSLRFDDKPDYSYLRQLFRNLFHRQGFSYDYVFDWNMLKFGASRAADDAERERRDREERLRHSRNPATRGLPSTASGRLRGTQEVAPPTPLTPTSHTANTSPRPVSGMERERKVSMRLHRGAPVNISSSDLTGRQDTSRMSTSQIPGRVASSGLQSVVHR
Chain of NLK (human) (Q9UBE8 whole entry, looked up): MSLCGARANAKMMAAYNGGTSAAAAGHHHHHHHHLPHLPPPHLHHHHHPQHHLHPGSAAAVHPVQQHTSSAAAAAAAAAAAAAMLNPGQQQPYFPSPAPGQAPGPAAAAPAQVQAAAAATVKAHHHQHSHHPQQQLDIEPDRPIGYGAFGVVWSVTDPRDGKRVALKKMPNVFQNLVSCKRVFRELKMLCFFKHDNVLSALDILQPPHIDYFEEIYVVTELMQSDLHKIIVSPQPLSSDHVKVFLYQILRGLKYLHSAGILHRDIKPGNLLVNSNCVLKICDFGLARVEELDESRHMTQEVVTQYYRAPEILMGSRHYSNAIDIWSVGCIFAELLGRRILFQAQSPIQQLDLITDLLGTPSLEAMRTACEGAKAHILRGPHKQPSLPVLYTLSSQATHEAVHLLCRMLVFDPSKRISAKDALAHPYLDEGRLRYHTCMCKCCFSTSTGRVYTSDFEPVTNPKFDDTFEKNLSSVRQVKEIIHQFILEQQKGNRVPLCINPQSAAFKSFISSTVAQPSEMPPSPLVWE

| Compound | kinase still bound, per cent of control (ACVR1 (human)) | kinase still bound, per cent of control (CAMKK1 (human)) | kinase still bound, per cent of control (CLK2 (human)) | kinase still bound, per cent of control (FGFR3 (human)) | kinase still bound, per cent of control (RPS6KA2 KD1 (human)) | kinase still bound, per cent of control (RPS6KA2 KD2 (human)) | kinase still bound, per cent of control (PDPK1 (human)) | kinase still bound, per cent of control (TGFBR1 (human)) | kinase still bound, per cent of control (PKN1 (human)) | kinase still bound, per cent of control (EPHA2 (human)) | kinase still bound, per cent of control (CDC42BPB (human)) | kinase still bound, per cent of control (RPS6KA4 KD1 (human)) | kinase still bound, per cent of control (STK32B (human)) | kinase still bound, per cent of control (PRKG1 (human)) | kinase still bound, per cent of control (MAP4K2 (human)) | kinase still bound, per cent of control (CSK (human)) | kinase still bound, per cent of control (PKN2 (human)) | kinase still bound, per cent of control (FGFR1 (human)) | kinase still bound, per cent of control (PAK4 (human)) | kinase still bound, per cent of control (PRKD2 (human)) | further results |
| --- | --- | --- | --- | --- | --- | --- | --- | --- | --- | --- | --- | --- | --- | --- | --- | --- | --- | --- | --- | --- | --- |
| Cn1c(=O)n(-c2ccc(C(C)(C)C#N)cc2)c2c3cc(-c4cnc5ccccc5c4)ccc3ncc21 | 100% | 100% | 100% | 100% | 100% | 100% | 100% | 100% | 100% | 100% | 100% | 100% | 100% | 100% | 11% | 100% | 100% | 100% | 100% | 100% | kinase still bound, per cent of control (ACVR1B (human)): 100%; kinase still bound, per cent of control (ERBB2 (human)): 100%; kinase still bound, per cent of control (PLK3 (human)): 100%; kinase still bound, per cent of control (ULK3 (human)): 100%; kinase still bound, per cent of control (TLK2 (human)): 100%; kinase still bound, per cent of control (MAP3K4 (human)): 100%; kinase still bound, per cent of control (MAPK7 (human)): 100%; kinase still bound, per cent of control (PLK4 (human)): 100%; kinase still bound, per cent of control (CDC42BPG (human)): 100%; kinase still bound, per cent of control (PIM2 (human)): 100%; kinase still bound, per cent of control (ERBB4 (human)): 100%; kinase still bound, per cent of control (MAP4K5 (human)): 100%; kinase still bound, per cent of control (EPHA6 (human)): 100%; kinase still bound, per cent of control (NLK (human)): 100%; kinase still bound, per cent of control (MAPKAPK2 (human)): 100%; kinase still bound, per cent of control (CSNK1D (human)): 100%; kinase still bound, per cent of control (AAK1 (human)): 100%; kinase still bound, per cent of control (PTK2 (human)): 100%; kinase still bound, per cent of control (MAPK14 (human)): 100%; kinase still bound, per cent of control (SRPK1 (human)): 100% |
| CCC(=O)N1CCN(c2ccc(-n3c(=O)ccc4cnc5ccc(-c6cnc7ccccc7c6)cc5c43)cc2C(F)(F)F)CC1 | 28% | 80% | 65% | 42% | 100% | 85% | 100% | 70% | 92% | 59% | 3.4% | 100% | 87% | 86% | 35% | 71% | 65% | 96% | 100% | 100% | kinase still bound, per cent of control (ACVR1B (human)): 45%; kinase still bound, per cent of control (ERBB2 (human)): 91%; kinase still bound, per cent of control (PLK3 (human)): 87%; kinase still bound, per cent of control (ULK3 (human)): 100%; kinase still bound, per cent of control (TLK2 (human)): 100%; kinase still bound, per cent of control (MAP3K4 (human)): 47%; kinase still bound, per cent of control (MAPK7 (human)): 100%; kinase still bound, per cent of control (PLK4 (human)): 100%; kinase still bound, per cent of control (CDC42BPG (human)): 1.6%; kinase still bound, per cent of control (PIM2 (human)): 62%; kinase still bound, per cent of control (ERBB4 (human)): 100%; kinase still bound, per cent of control (MAP4K5 (human)): 8.1%; kinase still bound, per cent of control (EPHA6 (human)): 75%; kinase still bound, per cent of control (NLK (human)): 25%; kinase still bound, per cent of control (MAPKAPK2 (human)): 100%; kinase still bound, per cent of control (CSNK1D (human)): 4.3%; kinase still bound, per cent of control (AAK1 (human)): 75%; kinase still bound, per cent of control (PTK2 (human)): 14%; kinase still bound, per cent of control (MAPK14 (human)): 90%; kinase still bound, per cent of control (SRPK1 (human)): 100% |
| O=C1Nc2ccc(I)cc2/C1=C/c1cc(Br)c(O)c(Br)c1 | 31% | 7.6% | 15% | 84% | 58% | 45% | 100% | 10% | 89% | 83% | 100% | 87% | 100% | 100% | 68% | 92% | 99% | 77% | 82% | 100% | kinase still bound, per cent of control (ACVR1B (human)): 33%; kinase still bound, per cent of control (ERBB2 (human)): 94%; kinase still bound, per cent of control (PLK3 (human)): 86%; kinase still bound, per cent of control (ULK3 (human)): 12%; kinase still bound, per cent of control (TLK2 (human)): 83%; kinase still bound, per cent of control (MAP3K4 (human)): 95%; kinase still bound, per cent of control (MAPK7 (human)): 5%; kinase still bound, per cent of control (PLK4 (human)): 26%; kinase still bound, per cent of control (CDC42BPG (human)): 91%; kinase still bound, per cent of control (PIM2 (human)): 2.1%; kinase still bound, per cent of control (ERBB4 (human)): 50%; kinase still bound, per cent of control (MAP4K5 (human)): 100%; kinase still bound, per cent of control (EPHA6 (human)): 100%; kinase still bound, per cent of control (NLK (human)): 56%; kinase still bound, per cent of control (MAPKAPK2 (human)): 100%; kinase still bound, per cent of control (CSNK1D (human)): 72%; kinase still bound, per cent of control (AAK1 (human)): 5.2%; kinase still bound, per cent of control (PTK2 (human)): 98%; kinase still bound, per cent of control (MAPK14 (human)): 36%; kinase still bound, per cent of control (SRPK1 (human)): 40% |
